Experimental findings from ChEMBL document CHEMBL5029168, “Discovery of novel ID2 antagonists from pharmacophore-based virtual screening as potential therapeutics for glioma” (Bioorg Med Chem, 2021) are described below.

Data set [1] has as its system Hs 683. Briefly: Cytotoxicity against human Hs 683 cells assessed as reduction in cell viability incubated for 24 hrs by CCK8 assay. It counts as functional, cell-based. The following applies: Hs 683, 24 h.
Data set [2] has as its system GL261. Kind of data set: Cytotoxicity against mouse GL261 cells assessed as reduction in cell viability incubated for 24 hrs by CCK8 assay. The class given is functional, cell-based. The settings on record: GL261, 24 h. Background: Formazan colour is commonly taken as a measure of viable cells.
In data set [3] the test system is U-87 MG. Kind of data set: Cytotoxicity against human U87 cells assessed as reduction in cell viability incubated for 24 hrs by CCK8 assay. It counts as functional, cell-based, U-87MG ATCC.
A short description of data set [4]: Aqueous solubility of compound at up to 80 uM measured after 10 mins by optical microscopic analysis. The class given is physicochemical. The following applies: buffer.

As to `COc1cccc2c1OC(c1ccc(F)cc1)N1N=C(c3ccccc3)CC21` (stereo unspecified), the half-inhibitory concentration (IC50) in data set [1], in data set [2] and in data set [3] was greater than 100 µM each time.

On to `COc1ccccc1[C@H](CNC(=O)CCc1c[nH]c2ccccc12)N1CCCC1`, for which the IC50 – broadly, the midpoint of a concentration-inhibition curve – was greater than 100 µM in data set [1], 94.6 µM in data set [2] and greater than 100 µM in data set [3].

On to `Cc1ccc(CNC(=O)Cn2c(CO)cnc2SCC(=O)Nc2ccc3c(c2)OCO3)cc1`, for which the IC50 in data set [1] was 41.5 µM; in data set [2], 50.1 µM; in data set [3] it was 37.8 µM.

With `NC(=O)C1CCN(C(=O)c2ccc(CSc3nc4cccnc4n3Cc3ccccc3)cc2)CC1`, the figures for the 50% inhibitory concentration (IC50) in data set [1], in data set [2] and in data set [3] were 62.3 µM, 56.7 µM and 60.3 µM, respectively.

Regarding `O=C(Cc1cccc2ccccc12)NNC(=O)Nc1cccc(Cl)c1`, the 50% inhibitory concentration (IC50) in data set [1], in data set [2] and in data set [3] was greater than 100 µM in each case.

With `CCN(C(=O)[C@H](Cc1ccccc1)NS(=O)(=O)c1cccc2nsnc12)c1ccccc1`, the IC50 is 69.8 µM in data set [1], 60.6 µM in data set [2] and 66.3 µM in data set [3].

In the case of `COc1ccc(Cn2c(SCC(=O)n3c4c(c5ccccc53)CCCC4)nc3ccccc32)cc1`, the IC50 stood at 91.4 µM in data set [1], 90.4 µM in data set [2] and 88.5 µM in data set [3].

Consider `O=C(C1=C(O)C(=O)N(CCc2c[nH]c3ccccc23)[C@@H]1c1cccc(O)c1)c1ccc(Cl)cc1`, for which the half-maximal inhibitory concentration (IC50) in data set [1] turned out to be 60.8 µM; in data set [2], 57.3 µM; in data set [3] it was 54.3 µM.

`Cc1ccc(NC(=O)C[C@H]2SC(NC(c3ccc(F)cc3)c3c(O)[nH]c(=O)[nH]c3=O)=NC2=O)cc1C` (stereo partly specified): the results for the 50% inhibitory concentration (IC50) in data set [1], in data set [2] and in data set [3] were 40.8 µM, 47.9 µM and 46.5 µM, respectively.

Regarding `Cc1ccc([C@H](O)CNC(=O)c2cccc(C)c2C)cc1`, the IC50 in data set [1] stood at 70.3 µM; in data set [2], 74.2 µM; in data set [3], 67.3 µM.

Regarding `Cc1ccc(CN2C(=O)[C@](O)(CC(=O)c3ccc4c(c3)OCO4)c3cc(Br)ccc32)cc1`, the solubility result in data set [4] is on record as “Insoluble”. For the same compound, the results for the IC50 in data set [1], in data set [2] and in data set [3] were 18.7 µM, 21.3 µM and 15.5 µM, respectively.

On to `COc1ccc(NS(=O)(=O)c2ccc(NC(=S)NC(=O)C(C)C)cc2)cc1`, for which the figures for the concentration for half-maximal inhibition (IC50) in data set [1], in data set [2] and in data set [3] were 53.2 µM, 61.3 µM and 56.7 µM, respectively.

As for `COc1ccc(N2C(=O)C[C@H](C(=O)NC3CCCCC3)[C@H]2c2ccc(F)cc2)cc1`, the values for the half-inhibitory concentration (IC50) in data set [1], in data set [2] and in data set [3] were 84.5 µM, 90.2 µM and 77.9 µM, respectively.

`CC1Oc2ccc(S(=O)(=O)Nc3ccc(CCC(=O)O)cc3)cc2NC1=O` (stereo unspecified): the figures for the concentration for half-maximal inhibition (IC50) in data set [1], in data set [2] and in data set [3] were 41.5 µM, 52.5 µM and 47.4 µM, respectively.

Turning to `O=C(NCCc1ccccc1)c1ccc(N2C[C@@H]3C[C@H](C2)c2cccc(=O)n2C3)c(NS(=O)(=O)c2cccc(Cl)c2)c1`, the IC50 in data set [1] turned out to be 55.3 µM; in data set [2] it was 48.1 µM; in data set [3], 56.2 µM.
